{
  "source": "patent US20240197715A1",
  "about": "“PHARMACEUTICAL COMBINATIONS AND USES THEREOF” (NOVARTIS AG, priority 2022, published 2024)",
  "key": {"[1]": {"test_system": "SW48 CRC MSI^high cell line", "experiment": "Long term proliferation assay (Incucyte), SW48", "format": "cell-based", "protocol": "The cell lines below were obtained from ATCC. Media and culture conditions used are as recommended by ATCC. All cells were maintained at 37° C. in a humidified 5% CO2 incubator. SW48 (CCL-231, ATCC) were cultured in RPMI 1640 (#1-41F01-1, AMIMED) supplemented with 10% FCS (#2-O-1F30-I, Bio concept), 2 mM L-glutamine (#5-10K50-H, BioConcept), 1 mM sodium pyruvate (#5-60F00-H, BioConcept) and 10 mM HEPES (#5-31F00-H, Bio Concept). HCT116 (CCL-247, ATCC) were cultured in McCoy's 5A (#16600082, Gibco) supplemented with 10% FCS (#2-O-1F30-I, Bio concept), 2 mM L-glutamine (#5-10K50-H, BioConcept).\nCells were passaged by washing first with Dulbecco's PBS without Ca^2+/Mg^2+ (#3-05F29-1, AMIMED), trypsinizing cells with Trypsin 0.05% in PBS with EDTA (#5-51F00-H, AMIMED), centrifuging in the respective culture media, and splitting cells into fresh media at a ratio of 1:8, 2 times per week.\nOn day 1, cells were trypsinized, resuspended in the respective media and counted using TC20 cell counter from Bio-Rad. […]\nOn day 2, cells were incubated overnight at 37° C. in a humidified 5% CO2 atmosphere, and then treated in triplicate, with the indicated concentrations, using a HP 300D non-contact Digital Dispenser (TECAN). […] Experiment was monitored, and images acquired using Incucyte® S3 live-cell analysis instrument (Sartorius). […] Data was analyzed and represented using Prism-GraphPad."}, "[2]": {"experiment": "Body weight / tolerability in SHP-77 tumor-bearing nude mice", "format": "in vivo", "conditions": "SHP-77 study; irinotecan 15 mg/kg; FIGS. 46 and 47", "protocol": "Tumor volumes (TVol), determined from caliper measurements (using the formula I*w2*TT/6) were measured two times per week. Tumor response was quantified by the change in tumor volume (endpoint minus starting value in mm^3) as the T/C. In the case of a tumor regression or to assess the percentage of change in TVol, the tumor response was quantified by the percentage of regression of the starting TVol. The body-weight (BW) of the animal was measured three times per week allowing calculation at any particular time-point relative to the day of initiation of treatment (day 0) of the percentage change in BW (4% BW)."}},
  "data": [
    {"smiles": "CCc1c(N2CCN(C(=O)c3ncnc(C)c3O)CC2)c(=O)n2nc(C3=CCOCC3)nc2n1CC(=O)Nc1ccc(C(F)(F)F)cc1Cl", "note": "[Compound A]", "values": [
      {"measurement": "outcome after monotherapy (relapse)", "setting": "[1]; Compound A monotherapy 30-100 nM", "value": "relapse observed"},
      {"measurement": "outcome after monotherapy (relapse)", "setting": "[1]; Compound A monotherapy at 100 nM, treatment removed around day 15", "value": "relapse observed"}
    ]},
    {"smiles": "CCc1c2c(nc3ccc(OC(=O)N4CCC(N5CCCCC5)CC4)cc13)-c1cc3c(c(=O)n1C2)COC(=O)[C@]3(O)CC", "note": "[irinotecan]", "values": [
      {"measurement": "body weight change", "setting": "[2]", "value": "slight body weight loss"}
    ]}
  ]
}
